Source: PubChem BioAssay AID1996
In brackets after ≈: the same amount, converted by molar mass.

Conditions: buffer; pH 7.4; 200.0 µM

| Compound | solubility kinetic [µg/mL] |
| --- | --- |
| O=C(CSCCOc1ccccc1)NCc1ccncc1 | > 45.4 |
| O=[N+]([O-])c1ccccc1S(=O)(=O)NCCSc1ccccc1 | 16.5 (≈ 48.8 µM) |
| CCOP(=O)(OCC)C(O)c1cccc([N+](=O)[O-])c1 (stereo not drawn) | 39.2 (≈ 136 µM) |
| Cn1c(=O)c2c(nc3n2CC(CO)O3)n(C)c1=O (stereo not drawn) | > 37.8 |
| CC(C)CCn1c(N2CCCC2)nc2c1c(=O)n(C)c(=O)n2C | 46.6 (≈ 146 µM) |
| CC(C)CC(=O)c1c[nH]c(C(=O)NCc2ccccc2)c1 | 1.6 (≈ 5.63 µM) |
| COC(=O)CSc1nnc(CNC(=O)c2ccc(OC)c(OC)c2)n1C | > 57.1 |
| COc1ccc(C(=O)N2CCN=C2SC)cc1 | > 37.5 |
| Cc1c(C(=O)O)cccc1-c1ccc(/C=C2\SC(=O)NC2=O)o1 | > 49.4 |
| O=C(CSc1ccc([N+](=O)[O-])cc1)OCC(=O)N1CCCC1=O | 50.3 (≈ 149 µM) |
| C=CCNC(=S)N1CCN(CCNC2=CC(=O)CC(C)(C)C2)CC1 | > 52.6 |
| CC(=O)NCCCNS(=O)(=O)c1ccc(C)cc1 | 32.2 (≈ 119 µM) |
| Cc1ccc(NC(=O)CN2C(=O)NC(C)(CC(C)C)C2=O)cc1F (stereo not drawn) | > 50.3 |
| CCC1CCC2(CC1)NC(=O)N(CC(=O)NCc1ccccc1Cl)C2=O (stereo not drawn) | 19.9 (≈ 52.7 µM) |
| CC(=O)N(C)c1ccc(NC(=S)NC(=O)/C=C/c2ccco2)cc1 | 11.6 (≈ 33.8 µM) |
| CC(=O)Nc1ccc2c(c1)N(C(C)=O)c1ccccc1CC2 | > 44.2 |
| O=C(Nc1cccc(Cl)c1)c1cnc[nH]1 | > 33.2 |
| CC1=NOC(=O)/C1=C/c1ccc(O)c(Cl)c1 | > 35.6 |
| CC(=O)Nc1cccc(-c2nc3ccccc3[nH]2)c1 | > 37.7 |
| CC(C)(C)NC(=O)c1cc2c(ccc3ccccc32)oc1=O | 2.5 (≈ 8.46 µM) |

| Compound | solubility kinetic [µg/mL] |
| --- | --- |
| O=C(/C=C/c1ccco1)N(Cc1ccc(F)cc1)C1CCS(=O)(=O)C1 (stereo not drawn) | > 54.5 |
| COc1ccc(NC(=O)C(=S)N2CCCC2)cc1 | > 39.7 |
| CC(C)C1Oc2ccccc2N(CC(=O)NC2CCCCC2)C1=O (stereo not drawn) | > 49.6 |
| O=C(CN1C(=O)C2C3CCC(C3)C2C1=O)OCC(=O)c1ccc(Br)cc1 (stereo not drawn) | > 63 |
| CC1(C)Cc2cccc(OCC(=O)NCc3cccs3)c2O1 | > 47.6 |
| CCC1(C)Cc2c(sc3nc(SC)[nH]c(=S)c23)CO1 (stereo not drawn) | 8.9 (≈ 28.5 µM) |
| C=CCN(CC=C)C(=S)Nc1cc(Cl)ccc1OC | > 44.5 |
| O=C(O)c1ccc(-n2cc(C(=O)c3ccccc3O)cn2)cc1 | > 46.2 |
| COc1ccc(CC(=O)OC(C)C(=O)Nc2ccc(S(N)(=O)=O)cc2)cc1 (stereo not drawn) | > 58.9 |
| COc1ccc2[nH]cc(/C=C/C(=O)c3ccccc3)c2c1 | 2.9 (≈ 10.5 µM) |
| COC(=O)c1sccc1NC(=O)Nc1ccc(F)cc1F | 26.6 (≈ 85.2 µM) |
| NC(=O)C1(c2ccccc2)CCC(=O)N1c1ccccc1 (stereo not drawn) | > 42 |
| COc1ccc(-c2csc(Nc3cccc(C)n3)n2)cc1 | < 0.2 |
| CCC(C)n1c(O)c(C=NC(C)c2ccccc2)c(=O)[nH]c1=S (stereo not drawn) | 4.3 (≈ 13 µM) |
| C/C(Cl)=C\C[N+](C)(C)CC(=O)OCCc1ccccc1.[Br-] | > 56.5 |
| COc1ccc(CNC(=O)c2nccnc2CO)cc1 | > 41 |
| CC1CCCN(C(=O)COC(=O)COc2ccc(C#N)cc2)C1 (stereo not drawn) | > 47.5 |
| CCCCN1C(C(=O)Nc2cc(C)on2)=C(O)c2ccccc2S1(=O)=O | > 56.6 |
| COc1ccc(OCC(=O)Nc2ccc(S(=O)(=O)N(C)c3ccccc3)cc2)cc1 | 1.8 (≈ 4.22 µM) |
| COc1ccc(NC(=O)C2=Cc3cccc(OC)c3OC2)cc1 | 17.7 (≈ 56.9 µM) |

| Compound | solubility kinetic [µg/mL] |
| --- | --- |
| CN(C)c1ccc(NC(=O)CN2C(=O)c3ccccc3C2=O)cc1 | 11.3 (≈ 34.9 µM) |
| Cc1ccc(C)c(OCCC(=O)OCC(=O)Nc2cc(S(=O)(=O)N3CCCCC3)ccc2C)c1 | 13.9 (≈ 28.4 µM) |
| O=C1Nc2ccccc2C(=O)N2CCCCC12 (stereo not drawn) | 19.3 (≈ 83.8 µM) |
| CC(=O)N1CCN(C(=O)c2ccc(C(=O)c3ccccc3)cc2)CC1 | > 50.5 |
| O=C(Nc1cccnc1Cl)c1cc(-c2ccccc2O)on1 | 0.9 (≈ 2.85 µM) |
| CN(CC(=O)NC(=O)NC1CCCCC1)c1ccccc1 | 6.7 (≈ 23.2 µM) |
| COc1cccc2cc(C(=O)NCc3ccc(C)cc3)c(=O)oc12 | < 0.7 |
| Cc1ccc(CNC(=O)CCNC(=O)c2ccc([N+](=O)[O-])cc2)cc1 | 41.2 (≈ 121 µM) |
| OC1CCNC(=S)N1c1ccccc1 (stereo not drawn) | 30.7 (≈ 147 µM) |
| N#Cc1ccc(OCC(=O)N2CCc3ccccc32)cc1 | 1.8 (≈ 6.47 µM) |
| COc1ccc(NC(=O)CCNC(=O)c2ccco2)c(OC)c1 | > 47.7 |
| COc1ccc(CNc2ccc3c(c2)ncn3C)cc1OC | 29.7 (≈ 99.9 µM) |
| Cn1c(O)c(C=NCCCCCCCCCCC(=O)O)c(=O)n(C)c1=O | > 55.1 |
| Cc1ccc(S(=O)(=O)Nc2csc(C)c2C(=O)O)cc1 | > 46.7 |
| NS(=O)(=O)c1ccc(NC(=O)CCC(=O)c2cccs2)cc1 | 14.7 (≈ 43.4 µM) |
| CC(OC(=O)CCc1nc2ccccc2c(=O)[nH]1)C(=O)Nc1cccc(C(F)(F)F)c1 (stereo not drawn) | > 65 |
| COc1ccc(C(=O)Cn2cnc3ccccc3c2=O)cc1OC | 42.3 (≈ 130 µM) |
| O=C(Nc1ccon1)c1sc2cc(Cl)ccc2c1Cl | < 0.3 |
